Results as given in the supplement of paper PMC4862054.

What was measured:
Settings in all cases: incubation time: 72 h
BT-474 [1] = experiment: drug sensitivity score (DSS), CellTiter-Blue viability (DSS (AUC-based score)); higher = stronger viability inhibition; extreme values may be limits of the assay
Procedure: (§1)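 DSRT with the CellTiter-Blue (resazurin reduction) viability readout, fluorescence 560/590 nm, 72 h incubation. Plates were normalised to DMSO and benzethonium chloride controls. DSS is computed from the area under the fitted dose-response curve (5 or 9 concentrations).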

HCC1937 [2] = experiment: as above
Procedure: as §1

Hs578T [3] = experiment: as above
Procedure: as §1

MFM-223 [4] = experiment: as above
Procedure: as §1

CAL-85-1 = experiment: as above
Procedure: as §1

MDA-MB-436 = experiment: as above
Procedure: as §1

MDA-MB-231 = experiment: as above
Procedure: as §1

CAL-120 [5] = experiment: as above
Procedure: as §1

HCC1599 = experiment: as above
Procedure: as §1

CAL-148 [6] = experiment: as above
Procedure: as §1

MDA-MB-468 = experiment: as above
Procedure: as §1

DU-4475 = experiment: as above
Procedure: as §1

CAL-51 [7] = experiment: as above
Procedure: as §1

HCC1143 = experiment: as above
Procedure: as §1

MDA-MB-453 [8] = experiment: as above
Procedure: as §1

SK-BR-3 = experiment: as above
Procedure: as §1

BT-549 = experiment: as above
Procedure: as §1

HDQ-P1 = experiment: as above
Procedure: as §1

BT-474 [9] = experiment: drug sensitivity score (DSS), CellTox Green (DSS (AUC-based score)); higher = stronger drug effect (viability inhibition or cytotoxicity); extreme values may be limits of the assay
In short: (§2)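 Each compound occupied 5 concentrations in 10-fold steps over its own 10,000-fold range in 384-well plates, into which breast cancer cell lines were seeded as 20 µl suspension. Following 72 h of incubation, CellTox Green fluorescence (485/520 nm) was measured, and CellTiter-Glo luminescence was measured after 10 min at room temperature. Plates were individually normalised to 0.1 % DMSO and a positive kill control. From the area under the fitted dose-response curve, a drug sensitivity score was calculated.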

HCC1937 [10] = experiment: as above
In short: as §2

Hs578T [11] = experiment: as above
In short: as §2

MFM-223 [12] = experiment: as above
In short: as §2

CAL-120 [13] = experiment: as above
In short: as §2

CAL-148 [14] = experiment: as above
In short: as §2

CAL-51 [15] = experiment: as above
In short: as §2

MDA-MB-453 [16] = experiment: as above
In short: as §2

| SMILES | drug sensitivity score (BT-474 [1]) | drug sensitivity score (HCC1937 [2]) | drug sensitivity score (Hs578T [3]) | drug sensitivity score (MFM-223 [4]) | drug sensitivity score (CAL-85-1) | drug sensitivity score (MDA-MB-436) | drug sensitivity score (MDA-MB-231) | drug sensitivity score (CAL-120 [5]) | drug sensitivity score (HCC1599) | drug sensitivity score (CAL-148 [6]) | drug sensitivity score (MDA-MB-468) | drug sensitivity score (DU-4475) | drug sensitivity score (CAL-51 [7]) | drug sensitivity score (HCC1143) | drug sensitivity score (MDA-MB-453 [8]) | drug sensitivity score (SK-BR-3) | drug sensitivity score (BT-549) | drug sensitivity score (HDQ-P1) | drug sensitivity score (BT-474 [9]) | drug sensitivity score (HCC1937 [10]) | drug sensitivity score (Hs578T [11]) | drug sensitivity score (MFM-223 [12]) | drug sensitivity score (CAL-120 [13]) | drug sensitivity score (CAL-148 [14]) | drug sensitivity score (CAL-51 [15]) | drug sensitivity score (MDA-MB-453 [16]) |
| --- | --- | --- | --- | --- | --- | --- | --- | --- | --- | --- | --- | --- | --- | --- | --- | --- | --- | --- | --- | --- | --- | --- | --- | --- | --- | --- |
| CC(=O)c1c(C)c2cnc(Nc3ccc(N4CCNCC4)cn3)nc2n(C2CCCC2)c1=O | 0 | 0 | 2.19 | 0 | 0 | 0 | 9.09 | 8.76 | 0 | 0 | 0 | 0 | 5.13 | 6.22 | 8.21 | 0 | 0 | 0 |  |  |  |  |  |  |  |  |
| Cn1cc(C2=Nc3cc(NC(=O)C(N)C4CCCCC4)cc4c3C2=CNNC4=O)cn1 (stereo unspecified) |  |  |  |  |  |  |  |  |  |  |  |  |  |  |  |  |  |  | 0 | 0 | 1.58 | 5.76 | 1.7 | 0 | 11 | 3.06 |
| COc1cc2c(cc1O)CC[C@@H]1[C@@H]2CC[C@]2(C)[C@@H](O)CC[C@@H]12 [2-methoxyestradiol] | 6.94 | 9.5 | 9.08 | 0 | 5.36 | 7.65 | 11.2 | 8.63 | 0 | 0 | 2.79 | 6.57 | 5.78 | 4.05 | 9.7 | 2.73 | 10.5 | 5.38 | 3.99 | 0 | 8.52 | 6.65 | 0.794 | 0 | 4.37 | 0 |
| Cc1sc2c(c1C)C(c1ccc(Cl)cc1)=N[C@@H](CC(=O)OC(C)(C)C)c1nnc(C)n1-2 [(+)JQ1] | 0 | 6.88 | 11 | 10.1 | 10.5 | 0 | 12.9 | 11.2 | 7.63 | 9.78 | 5.95 | 17.1 | 3.04 | 6.54 | 17.2 | 8.66 | 10.7 | 0 | 0 | 13.4 | 0 | 0 | 1.56 | 6.55 | 6.31 | 0 |
| CC1(C)CCC(CN2CCN(c3ccc(C(=O)NS(=O)(=O)c4ccc(NCC5CCOCC5)c([N+](=O)[O-])c4)c(Oc4cnc5[nH]ccc5c4)c3)CC2)=C(c2ccc(Cl)cc2)C1 [ABT-199] |  |  |  |  |  |  |  |  |  |  |  |  |  |  |  |  |  |  | 0 |  | 0 | 0 | 0.378 | 0 | 0 | 0 |
| Oc1ncnc2[nH]ncc12 [Allopurinol] | 0 | 0 | 0 | 0 | 0 | 0 | 0 | 0 | 0 | 0 | 0 | 0 | 0 | 0 | 0 | 0 | 0 | 0 | 0 | 0 | 0 | 0 | 0 | 0 | 0 |  |
| O=C1CN2Cc3c(ccc(Cl)c3Cl)N=C2N1 [Anagrelide] | 0 | 2.41 | 0 | 0 | 0 | 0 | 0 | 0 | 0 | 0 | 0 | 0 | 4.77 | 0 | 0 | 0 | 0 | 0 | 0 | 0 | 0 | 0 | 0 |  | 14.2 | 0 |
| Nc1ncn([C@@H]2O[C@H](CO)[C@@H](O)[C@H]2O)c(=O)n1 [Azacitidine] | 0 | 5.11 | 3.33 | 0 | 0 | 3.01 | 0 | 0.768 | 0 | 0 | 11.3 | 0 | 0 | 0 | 0 | 0 | 3.42 | 0 | 1.95 | 0 | 0 | 0 | 0 | 0 | 0 | 0 |
| CC1=C2C[C@H]3[C@@H](CC=C4C[C@@H](O)CC[C@@]43C)[C@@H]2CC[C@]12O[C@@H]1C[C@H](C)CN[C@H]1[C@H]2C [Cyclopamine] | 0 | 0 | 0 | 0 | 0 | 0 | 0 | 0 | 0 | 0 | 0 | 0 | 0 | 0 | 0 | 0 | 0 | 0 | 0 |  | 0 | 0 | 0 | 0 | 0 | 0 |
| CC(=O)N(O)CCCCCNC(=O)CCC(=O)N(O)CCCCCNC(=O)CCC(=O)N(O)CCCCCN [Deferoxamine] |  |  |  |  |  |  |  |  |  |  |  |  |  |  |  |  |  |  | 0 | 0 | 0 | 0 | 0 | 7.47 | 4.29 | 0 |
| C[C@]12CC[C@@H]3c4ccc(OC(=O)N(CCCl)CCCl)cc4CC[C@H]3[C@@H]1CC[C@@H]2O [Estramustine] | 0 | 0 | 0 | 0 | 0 | 0 | 0 | 0 | 0 | 0 | 0 | 0 | 0 | 0 | 0 | 0 | 0 | 0 | 0 | 0 |  | 0 | 0 | 0 | 6.18 | 0 |
| C[C@]1(O)C[C@@H](c2nc(-c3ccc4ccc(-c5ccccc5)nc4c3)c3c(N)nccn32)C1 [Linsitinib] |  |  |  |  |  |  |  |  |  |  |  |  |  |  |  |  |  |  | 0 | 0 | 2.22 | 0 | 0 | 0 | 0 | 0 |
| C[C@]1(O)C[C@@H](c2nc(-c3ccc4ccc(-c5ccccc5)nc4c3)c3c(N)nccn32)C1 [OSI-906] | 1.46 | 4.24 | 2 | 0 | 1.93 | 0 | 0 | 0 | 3.98 | 0 | 0 | 0 | 1.03 | 2.39 | 0 | 6.92 | 3.58 | 6.19 |  |  |  |  |  |  |  |  |
| Cc1ccc([N+](=O)[O-])cc1S(=O)(=O)N(C)/N=C/c1cnc2ccc(Br)cn12 [PIK-75] |  |  |  |  |  |  |  |  |  |  |  |  |  |  |  |  |  |  | 20.3 | 2.32 | 25.2 | 12.3 | 2.85 | 0 | 36.9 | 7.11 |
| CC(=O)c1c(C)c2cnc(Nc3ccc(N4CCNCC4)cn3)nc2n(C2CCCC2)c1=O [Palbociclib] |  |  |  |  |  |  |  |  |  |  |  |  |  |  |  |  |  |  | 0 | 0 | 0 | 0 | 0 |  | 0 | 0 |
| CC[C@@H]1C(=O)OC[C@@H]1Cc1cncn1C [Pilocarpine] | 0 | 0 | 0 | 0 | 0 | 0 | 0 | 0 | 0 | 0 | 0 | 0 | 0 | 0 | 0.965 | 0 | 0 | 0 | 0 | 0 |  | 0 | 0 | 0 | 0 | 0 |
| COc1cc(F)c(F)c(Nc2ccc(I)cc2F)c1NS(=O)(=O)C1(C[C@H](O)CO)CC1 [RDEA119] | 0 | 5.85 | 8.25 | 5.52 | 10.3 | 0 | 18.7 | 7.36 | 0 | 0 | 4.71 | 28.1 | 6.65 | 8.17 | 5.64 | 0 | 0 | 11.4 |  |  |  |  |  |  |  |  |
| COc1cc(F)c(F)c(Nc2ccc(I)cc2F)c1NS(=O)(=O)C1(C[C@H](O)CO)CC1 [Refametinib] |  |  |  |  |  |  |  |  |  |  |  |  |  |  |  |  |  |  | 0 | 0 | 0 | 0 | 0.239 | 0 | 0 | 0 |
